Legend:
[1] = system: Wnt activity (Sp5-Luc reporter, SW480 colon carcinoma cells); experiment: Sp5-Luc Wnt reporter gene screening assay in SW480 colon carcinoma cells; conditions: Homo sapiens
[2] = system: primary human fibroblasts derived from IPF patients (LL29 cells); experiment: Inhibition of fibrosis (αSMA staining) in TGF-β1-treated primary human fibroblasts from IPF patients; assay type: cell-based; conditions: Fibroblast, 96 h, TGF-β1 20 ng/mL, 4 days
Method in brief: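 LL29 IPF fibroblasts in F12 with 1% FBS were stimulated with TGF-β1 (20 ng/mL) and incubated 4 days at 37 °C. SYTOX-positive dead cells were excluded, and αSMA-positive cells were counted by immunostaining as % of total. Values were normalized to TGF-β1/DMSO wells on the same plate, and EC50 derived.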

Row | Compound | IC50 [1] [nM] | EC50 [2] [nM]
1 | CCNCc1cncc(-c2cc3c(-c4nc5c(-c6ccoc6)cccc5[nH]4)n[nH]c3cn2)c1 [Compound 292, N-((5-(3-(4-(Furan-3-yl)-1H-benzo[d]imidazol-2-yl)-1H-pyrazolo[3,4-c]pyridin-5-yl)pyridin-3-yl)methyl)ethanamine] | 29.6 | 9
2 | O=C(Nc1cncc(-c2cc3c(-c4nc5c(-c6ccc(F)s6)cccc5[nH]4)n[nH]c3cn2)c1)C1CCC1 [Compound 358, N-(5-(3-(4-(5-Fluorothiophen-2-yl)-1H-benzo[d]imidazol-2-yl)-1H-pyrazolo[3,4-c]pyridin-5-yl)pyridin-3-yl)cyclobutanecarboxamide] | 11.6 | 9990
3 | CC(C)(C)CC(=O)Nc1cncc(-c2cc3c(-c4nc5ccccc5[nH]4)n[nH]c3cn2)c1 [Compound 250, N-(5-(3-(1H-Benzo[d]imidazol-2-yl)-1H-pyrazolo[3,4-c]pyridin-5-yl)pyridin-3-yl)-3,3-dimethylbutanamide] | 183 | 258
4 | Fc1ccc(-c2cccc3[nH]c(-c4n[nH]c5cnc(-c6cncnc6)cc45)nc23)cc1 [Compound 52, 3-(4-(4-Fluorophenyl)-1H-benzo[d]imidazol-2-yl)-5-(pyrimidin-5-yl)-1H-pyrazolo[3,4-c]pyridine] | 122 | 147
5 | O=C(Cc1ccccc1)Nc1cncc(-c2cc3c(-c4nc5ccccc5[nH]4)n[nH]c3cn2)c1 [Compound 244, N-(5-(3-(1H-Benzo[d]imidazol-2-yl)-1H-pyrazolo[3,4-c]pyridin-5-yl)pyridin-3-yl)-2-phenylacetamide] | 211 | 1960
6 | c1cc(-c2ccoc2)c2nc(-c3n[nH]c4cnc(-c5cncc(CNCC6CCCC6)c5)cc34)[nH]c2c1 [Compound 310, 1-Cyclopentyl-N-((5-(3-(4-(furan-3-yl)-1H-benzo[d]imidazol-2-yl)-1H-pyrazolo[3,4-c]pyridin-5-yl)pyridin-3-yl)methyl)methanamine] | 58.8 | 83
7 | CC(C)(C)C(=O)Nc1cncc(-c2cc3c(-c4nc5c(-c6ccoc6)cccc5[nH]4)n[nH]c3cn2)c1 [Compound 294, N-(5-(3-(4-(Furan-3-yl)-1H-benzo[d]imidazol-2-yl)-1H-pyrazolo[3,4-c]pyridin-5-yl)pyridin-3-yl)pivalamide] | 48.6 | 9
8 | CN(C)CCNc1cc(F)cc(-c2cccc3[nH]c(-c4n[nH]c5cnc(-c6cncc(NC(=O)C(C)(C)C)c6)cc45)nc23)c1 [Compound 450, N-(5-(3-(4-(3-((2-(Dimethylamino)ethyl)amino)-5-fluorophenyl)-1H-benzo[d]imidazol-2-yl)-1H-pyrazolo[3,4-c]pyridin-5-yl)pyridin-3-yl)pivalamide] | 159 | 85
9 | CC(C)(C)C(=O)Nc1cncc(-c2cc3c(-c4nc5c(-c6cc(F)cc(CNS(C)(=O)=O)c6)cccc5[nH]4)n[nH]c3cn2)c1 [Compound 424, N-(5-(3-(4-(3-Fluoro-5-(methylsulfonamidomethyl)phenyl)-1H-benzo[d]imidazol-2-yl)-1H-pyrazolo[3,4-c]pyridin-5-yl)pyridin-3-yl)pivalamide] | 19.9 | 51
10 | O=C(Nc1cncc(-c2cc3c(-c4nc5c(-c6ccncc6)cccc5[nH]4)n[nH]c3cn2)c1)C1CCCCC1 [Compound 126, N-(5-(3-(4-(Pyridin-4-yl)-1H-benzo[d]imidazol-2-yl)-1H-pyrazolo[3,4-c]pyridin-5-yl)pyridin-3-yl)cyclohexanecarboxamide] | > 10000 | 9990
11 | O=C(Nc1cncc(-c2cc3c(-c4nc5c(-c6ccccc6F)cccc5[nH]4)n[nH]c3cn2)c1)C1CCCC1 [Compound 73, N-(5-(3-(4-(2-Fluorophenyl)-1H-benzo[d]imidazol-2-yl)-1H-pyrazolo[3,4-c]pyridin-5-yl)pyridin-3-yl)cyclopentanecarboxamide] | 123 | 1190
